According to US20240122816A1, “ARTICLES FOR INDIRECT TRANSFER OF COSMETIC ACTIVES TO SKIN” (SYMRISE AG, priority 2019, published 2024):

Assay: Analysis of the bisabolol content on the skin (GC/MS of alcohol-pad extract) after transfer from laundered clothing article
Type: in vivo, human
Excerpt: Protocol: • One cotton sock from the laundry described previously was inverted to expose the inner surface. • Left arm of a subject was washed with unfragranced soap followed by 95% alcohol wipe to remove any foreign material and soluble oils. • Rubbed previously laundered cotton sock with Symrelief onto subject's […]. Seven times on one side then 8 times on the other sock surface.
(§1) Protocol: • Applied 3 commercially available alcohol pads (which had been soaked in 95% ethanol) onto arm area. Allowed to dry completely. • The alcohol wipe pads were transferred into 1 oz glass jar and added 5 grams diethylether and allowed to extract for 2 hours. • Ether extract was concentrated to 100 μl under a nitrogen stream. • 2.5 μl was manually injected into a GC/MS equipt with a carbowax column and run with a splitless method. • Bisabolol peak was identified in the sample by the characteristic ions in the mass spectrum. • The control arm was treated in the same manner with no identified bisabolol.
Protocol: • One of a pair of cotton/poly socks from the laundry described previously was given to a test subject removed and blind codded. The sock was paired with a blind codded sock that was un-laundered. • The ventral surface of the subjects ankles were washed with unfragranced soap followed by 95% alcohol wipe to remove any foreign material and soluble oils. • The pair of socks were worn by a test subject for 8 hours in a normal use setting.
as §1, with “•” for “Protocol: •”, “12” for “3”, “bisabolol. […]” for “bisabolol.”

Bisabolol peak in skin wipe extract (GC/MS, characteristic ions) (laundered cotton sock (softener with 5% Symcap G1 Bisabolol slurry) rubbed onto subject's arm, 7 and 8 times, 3 alcohol pads): identified | Bisabolol peak in skin wipe extract (GC/MS, characteristic ions) (laundered cotton/poly sock worn for 8 hours in normal use, 12 alcohol pads): identified | Bisabolol peak in skin wipe extract (GC/MS, characteristic ions) (laundered thermal shirt worn for 8 hours in normal use, upper arms, 12 alcohol pads): identified
Structure (SMILES): CC(C)=CCC[C@](C)(O)C1CC=C(C)CC1 (stereo partly drawn) [Bisabolol, bisabolol]
